Experimental data from ChEMBL document CHEMBL4393743, “Anti-tumor activity evaluation of novel tubulin and HDAC dual-targeting inhibitors” (Bioorg Med Chem Lett, 2019).
Active and inactive are the calls of the source. The calls are words filed in the database; no cut-off is given here.

Assays:
HeLa = assay: Antiproliferative activity against human HeLa cells assessed as cell growth inhibition incubated for 72 hrs by MTT assay; assay type: functional, cell-based
[1] = target: Histone deacetylase (Homo sapiens) (UniProt Q13547+O15379+Q9UBN7+Q92769+Q9UQL6+Q8WUI4+Q9BY41+Q96DB2+P56524+Q9UKV0+Q969S8); conditions: HeLa, at 1 µM
Description: Inhibition of HDAC in human HeLa cell nuclear extracts at 1 uM

SGC-7901 = assay: Antiproliferative activity against human SGC7901 cells assessed as cell growth inhibition incubated for 72 hrs by MTT assay; assay type: functional, cell-based; conditions: SGC-7901, 72 h
A549 [2] = assay: Antiproliferative activity against human A549 cells assessed as cell growth inhibition incubated for 72 hrs by MTT assay; assay type: functional, cell-based; conditions: A549, 72 h
BGC-823 = assay: Antiproliferative activity against human BGC823 cells assessed as cell growth inhibition incubated for 72 hrs by MTT assay; assay type: functional, cell-based; conditions: BGC-823, 72 h
Histone deacetylase 1 = Histone deacetylase 1 (Homo sapiens, UniProt Q13547); assay: Inhibition of HDAC1 (unknown origin) using Boc-Lys(Ac)-AMC as substrate incubated for 60 mins by fluorescence assay
LoVo = assay: Antiproliferative activity against human LoVo cells assessed as cell growth inhibition incubated for 72 hrs by MTT assay; assay type: functional, cell-based
MCF7 = assay: Antiproliferative activity against human MCF7 cells assessed as cell growth inhibition incubated for 72 hrs by MTT assay; assay type: functional, cell-based; conditions: MCF7, 72 h
HCT-116 = assay: Antiproliferative activity against human HCT116 cells assessed as cell growth inhibition incubated for 72 hrs by MTT assay; assay type: functional, cell-based; conditions: HCT-116, 72 h
[3] = target: T1, Protein deacetylase HDAC6 (Homo sapiens, UniProt Q9UBN7); assay: Inhibition of HDAC6 (unknown origin) using Boc-Lys(Ac)-AMC as substrate incubated for 60 mins by fluorescence assay
T1 sequence (Q9UBN7 whole entry): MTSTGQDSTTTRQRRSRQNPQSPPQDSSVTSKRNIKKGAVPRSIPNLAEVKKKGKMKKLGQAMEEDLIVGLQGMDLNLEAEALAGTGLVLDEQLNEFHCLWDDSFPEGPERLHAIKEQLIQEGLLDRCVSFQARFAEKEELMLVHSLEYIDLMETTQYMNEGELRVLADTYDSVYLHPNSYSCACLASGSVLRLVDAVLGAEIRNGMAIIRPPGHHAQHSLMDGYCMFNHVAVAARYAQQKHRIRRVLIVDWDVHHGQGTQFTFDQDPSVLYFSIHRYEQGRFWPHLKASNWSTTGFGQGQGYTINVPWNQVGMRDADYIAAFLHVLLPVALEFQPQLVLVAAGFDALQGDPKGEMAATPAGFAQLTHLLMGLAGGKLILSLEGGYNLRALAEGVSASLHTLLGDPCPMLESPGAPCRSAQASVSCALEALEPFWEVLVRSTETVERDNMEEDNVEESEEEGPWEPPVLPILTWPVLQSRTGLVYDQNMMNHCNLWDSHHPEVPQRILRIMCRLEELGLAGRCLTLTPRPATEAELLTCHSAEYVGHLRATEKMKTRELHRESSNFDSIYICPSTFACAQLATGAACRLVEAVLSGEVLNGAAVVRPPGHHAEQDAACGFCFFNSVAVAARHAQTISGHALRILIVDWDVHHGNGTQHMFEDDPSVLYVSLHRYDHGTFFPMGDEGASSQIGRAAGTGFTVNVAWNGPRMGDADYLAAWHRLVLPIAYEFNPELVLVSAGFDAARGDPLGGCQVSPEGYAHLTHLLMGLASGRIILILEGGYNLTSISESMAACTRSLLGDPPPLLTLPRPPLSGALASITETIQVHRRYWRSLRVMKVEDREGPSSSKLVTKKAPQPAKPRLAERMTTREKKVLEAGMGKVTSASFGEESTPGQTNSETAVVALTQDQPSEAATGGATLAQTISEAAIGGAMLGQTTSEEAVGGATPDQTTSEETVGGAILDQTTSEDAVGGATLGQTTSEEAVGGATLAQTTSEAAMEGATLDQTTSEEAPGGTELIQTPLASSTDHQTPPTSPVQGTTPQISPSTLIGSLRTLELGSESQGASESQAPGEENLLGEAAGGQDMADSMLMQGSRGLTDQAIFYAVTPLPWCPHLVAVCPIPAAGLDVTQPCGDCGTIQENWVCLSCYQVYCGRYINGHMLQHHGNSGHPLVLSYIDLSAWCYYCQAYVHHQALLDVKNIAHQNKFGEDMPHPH

MDA-MB-231 = assay: Antiproliferative activity against human MDA-MB-231 cells assessed as cell growth inhibition incubated for 72 hrs by MTT assay; assay type: functional, cell-based; conditions: MDA-MB-231, 72 h
Histone deacetylase 8 = target: T2, Histone deacetylase 8 (Homo sapiens, UniProt Q9BY41); assay: Inhibition of HDAC8 (unknown origin) using Boc-Lys(Ac)-AMC as substrate incubated for 60 mins by fluorescence assay
T2 sequence (Q9BY41 whole entry): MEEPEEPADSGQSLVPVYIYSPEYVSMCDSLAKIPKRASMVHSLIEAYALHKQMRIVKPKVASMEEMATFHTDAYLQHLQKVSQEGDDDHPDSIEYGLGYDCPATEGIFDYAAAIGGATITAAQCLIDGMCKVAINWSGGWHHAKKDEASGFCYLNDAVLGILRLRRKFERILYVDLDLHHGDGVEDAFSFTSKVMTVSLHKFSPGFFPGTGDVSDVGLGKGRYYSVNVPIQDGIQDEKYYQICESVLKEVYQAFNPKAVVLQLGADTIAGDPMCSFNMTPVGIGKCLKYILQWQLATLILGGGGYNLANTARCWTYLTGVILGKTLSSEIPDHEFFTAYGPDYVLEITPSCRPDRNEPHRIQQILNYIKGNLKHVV

NCI-H460 = assay: Antiproliferative activity against human NCI-H460 cells assessed as cell growth inhibition incubated for 72 hrs by MTT assay; assay type: functional, cell-based; conditions: NCI-H460, 72 h
MGC-803 = assay: Antiproliferative activity against human MGC803 cells assessed as cell growth inhibition incubated for 72 hrs by MTT assay; assay type: functional, cell-based; conditions: MGC-803, 72 h
Histone deacetylase = assay: Inhibition of HDAC in human HeLA cell nuclear extracts; assay type: cell-based
NCI-H226 = assay: Antiproliferative activity against human NCI-H226 cells assessed as cell growth inhibition incubated for 72 hrs by MTT assay; assay type: functional, cell-based; conditions: NCI-H226, 72 h
Tubulin = assay: Inhibition of tubulin polymerization (unknown origin) by spectrophotometric method; assay type: protein-complex assay, Homo sapiens
A549 [4] = assay: Antimigratory activity in human A549 cells at 5 to 10 uM incubated for 12 hrs in presence of mitomycin by inverted microscopic-based wound healing assay; assay type: functional, cell-based
A549 [5] = assay: Induction of apoptosis in human A549 cells assessed as necrotic cells at 10 uM incubated for 72 hrs by Annexin V-FITC/propidium iodide-staining based flow cytometric analysis (reference value: 2.76%); assay type: functional
A549 [6] = assay: Induction of apoptosis in human A549 cells assessed as live cells at 10 uM incubated for 72 hrs by Annexin V-FITC/propidium iodide-staining based flow cytometric analysis (reference value: 89.8%); assay type: functional
A549 [7] = assay: Induction of apoptosis in human A549 cells assessed as early apoptotic cells at 10 uM incubated for 72 hrs by Annexin V-FITC/propidium iodide-staining based flow cytometric analysis (reference value: 1.8%); assay type: functional
A549 [8] = assay: Induction of cell cycle arrest in human A549 cells assessed as accumulation at S phase at 10 uM incubated for 36 hrs by propidium iodide staining based flow cytometry (reference value: 16.66%); assay type: functional
A549 [9] = assay: Induction of apoptosis in human A549 cells assessed as late apoptotic cells at 10 uM incubated for 72 hrs by Annexin V-FITC/propidium iodide-staining based flow cytometric analysis (reference value: 5.69%); assay type: functional
A549 [10] = assay: Induction of cell cycle arrest in human A549 cells assessed as accumulation at G2/M phase at 10 uM incubated for 36 hrs by propidium iodide staining based flow cytometry (reference value: 10.83%); assay type: functional
A549 [11] = assay: Induction of cell cycle arrest in human A549 cells assessed as accumulation at G0/G1 phase at 10 uM incubated for 36 hrs by propidium iodide staining based flow cytometry (reference value: 72.51%); assay type: functional

Sequence of Histone deacetylase 1 (Q13547 whole entry): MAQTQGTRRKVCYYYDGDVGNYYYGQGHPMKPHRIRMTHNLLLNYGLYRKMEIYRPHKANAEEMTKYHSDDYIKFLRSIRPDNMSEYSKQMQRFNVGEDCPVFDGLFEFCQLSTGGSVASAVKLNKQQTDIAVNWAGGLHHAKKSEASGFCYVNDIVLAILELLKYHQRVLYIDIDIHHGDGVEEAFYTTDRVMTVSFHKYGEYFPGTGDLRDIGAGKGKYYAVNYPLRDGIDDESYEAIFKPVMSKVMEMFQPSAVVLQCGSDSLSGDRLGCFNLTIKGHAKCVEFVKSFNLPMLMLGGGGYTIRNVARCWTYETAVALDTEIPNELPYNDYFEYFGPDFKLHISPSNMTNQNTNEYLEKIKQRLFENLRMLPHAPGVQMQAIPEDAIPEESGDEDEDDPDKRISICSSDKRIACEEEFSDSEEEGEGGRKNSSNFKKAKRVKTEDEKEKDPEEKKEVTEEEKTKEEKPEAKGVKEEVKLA

| Compound | IC50 (HeLa) | inhibition [1] | IC50 (SGC-7901) | IC50 (A549 [2]) | IC50 (LoVo) | also measured |
| --- | --- | --- | --- | --- | --- | --- |
| COc1ccc(/C=C(\C)C(=O)c2cc(OC)c(OC)c(OC)c2)cc1OCCCCC(=O)NO | 3.15 µM | 35.4% | 13.9 µM | 1.45 µM |  |  |
| COc1ccc(/C=C(\C)C(=O)c2cc(OC)c(OC)c(OC)c2)cc1OCCCCCCCC(=O)NO | 19.4 µM | 92.3% | 28.3 µM | 20 µM | 9.93 µM | IC50 (BGC-823): 15.2 µM; IC50 (Histone deacetylase 1): 0.0152 µM; IC50 (MCF7): 12 µM; IC50 (HCT-116): 10.7 µM; IC50 [3]: 0.0136 µM; IC50 (MDA-MB-231): 11.8 µM; IC50 (Histone deacetylase 8): 4.91 µM; IC50 (NCI-H460): 20.2 µM; IC50 (MGC-803): 16.4 µM; IC50 (Histone deacetylase): 0.0715 µM; IC50 (NCI-H226): 23.2 µM; IC50 (Tubulin): 5 µM |
| O=C(CCCCCCC(=O)Nc1ccccc1)NO [VORINOSTAT] |  |  | 1.03 µM |  | 2.15 µM | Activity (A549 [4]): Active; Activity (A549 [5]): 8.58%; Activity (A549 [6]): 60.3%; Activity (A549 [7]): 7.17%; Activity (A549 [8]): 39.53%; Activity (A549 [9]): 24%; Activity (A549 [10]): 50.86%; Activity (A549 [11]): 9.61% |
| COc1ccc(/C=C/C(=O)c2cc(OC)c(OC)c(OC)c2)cc1O | 0.44 µM |  | 1.13 µM | 1.02 µM | 3.99 µM | IC50 (BGC-823): 7.58 µM; IC50 (MCF7): 8.6 µM; IC50 (HCT-116): 2.85 µM; IC50 (MDA-MB-231): 4.28 µM; IC50 (NCI-H460): 4.98 µM; IC50 (MGC-803): 8.33 µM; IC50 (NCI-H226): 4.38 µM; IC50 (Tubulin): 4 µM |
| COc1ccc(/C=C(\C)C(=O)c2cc(OC)c(OC)c(OC)c2)cc1OCCCCCC(=O)NO | 10.4 µM | 74.8% | 14 µM | 13.6 µM |  |  |
| COc1ccc(/C=C(\C)C(=O)c2cc(OC)c(OC)c(OC)c2)cc1OCCCCCCC(=O)NO | 16.6 µM | 86% | 20 µM | 11.5 µM |  |  |
| COc1ccc(/C=C(\C)C(=O)c2cc(OC)c(OC)c(OC)c2)cc1O | > 50 µM |  | 2.06 µM | 1.51 µM |  |  |

More lines, main results first:

| IC50 (HeLa) | inhibition [1] | IC50 (SGC-7901) | IC50 (A549 [2]) | IC50 (LoVo) | Compound | also measured |
| --- | --- | --- | --- | --- | --- | --- |
| 37.2 µM | 84.8% | > 50 µM | 13.3 µM |  | COc1ccc(/C=C/C(=O)c2cc(OC)c(OC)c(OC)c2)cc1OCCCCCCCC(=O)NO |  |
| 24.6 µM | 78.5% | 25.2 µM | 9.4 µM |  | COc1ccc(/C=C/C(=O)c2cc(OC)c(OC)c(OC)c2)cc1OCCCCCC(=O)NO |  |
| 13.3 µM | 21.8% | 17.4 µM | 12.2 µM |  | COc1ccc(/C=C/C(=O)c2cc(OC)c(OC)c(OC)c2)cc1OCCCC(=O)NO |  |
| 21.4 µM | 87.3% | 24.5 µM | 7.15 µM | 12.6 µM | COc1ccc(/C=C/C(=O)c2cc(OC)c(OC)c(OC)c2)cc1OCCCCCCC(=O)NO | IC50 (BGC-823): 11.5 µM; IC50 (Histone deacetylase 1): 0.0363 µM; IC50 (MCF7): 17.9 µM; IC50 (HCT-116): 29.9 µM; IC50 [3]: 0.0046 µM; IC50 (MDA-MB-231): 15.2 µM; IC50 (Histone deacetylase 8): 3.88 µM; IC50 (NCI-H460): 13.2 µM; IC50 (MGC-803): 10.1 µM; IC50 (Histone deacetylase): 0.1326 µM; IC50 (NCI-H226): 15.7 µM; IC50 (Tubulin): 10.4 µM |
| 25.9 µM | 32.9% | > 50 µM | 14.3 µM |  | COc1ccc(/C=C/C(=O)c2cc(OC)c(OC)c(OC)c2)cc1OCCCCC(=O)NO |  |
